Experimental data taken from patent US20140120036A1, “RADIOLABELED 5-HT6 LIGANDS” (AbbVie Inc., priority 2012, published 2014).
Where two headings read alike, the source gives them in different places. Each block holds one molecule with its values, some of them ahead of it.

Legend:
h-5-HT2A receptor = biological target: T1, h-5-HT2A receptor (Homo sapiens, UniProt P28223); assay: 5-HT2A receptor binding assay ([125I]-DOI displacement, CHO-K1 membranes)
T1 construct: purchased Perkin Elmer ES-3,3-M400UA; host or cells: CHO-K1 cell membranes
T1 sequence (P28223 whole entry): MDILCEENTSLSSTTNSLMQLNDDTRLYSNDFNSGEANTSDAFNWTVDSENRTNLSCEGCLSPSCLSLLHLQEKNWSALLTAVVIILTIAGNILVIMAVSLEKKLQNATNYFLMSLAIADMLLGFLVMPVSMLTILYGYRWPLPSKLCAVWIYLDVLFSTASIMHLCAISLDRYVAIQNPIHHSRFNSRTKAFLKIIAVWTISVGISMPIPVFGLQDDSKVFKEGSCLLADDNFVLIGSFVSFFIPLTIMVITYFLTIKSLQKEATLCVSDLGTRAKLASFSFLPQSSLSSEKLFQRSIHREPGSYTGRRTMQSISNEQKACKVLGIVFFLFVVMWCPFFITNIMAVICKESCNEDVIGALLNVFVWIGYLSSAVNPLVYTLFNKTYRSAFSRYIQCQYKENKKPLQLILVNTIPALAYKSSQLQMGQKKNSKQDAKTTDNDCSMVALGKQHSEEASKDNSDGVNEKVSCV
Protocol: The cells were collected by centrifugation at 500 g for 10 min. at 4° C., washed with PBS and centrifuged (500 g, 10 min. 4° C.). The pellets were stored at −80° C. until use. For membrane preparation, the thawed cell pellet was resuspended in ice-cold sucrose buffer (0.25 M sucrose, 10 mM Hepes (pH 7.4), 1 mM Phenylmethylsulfonyl fluoride (PMSF) in DMSO, […] Pepstatin-A, 3 mM EDTA, 0.025% Bacitracin) and homogenized with a Branson Sonifier W-250 (Settings: Timer 4; Output Control 3; Duty Cycle constant; 2 to 3 cycles). Cell disruption was checked with the aid of a microscope. Remaining unbroken cells were pelleted at 1,000 g for 10 min. at 4° C. The sucrose buffer supernatant was then centrifuged at 60,000 g for 1 h at 4° C. (Beckman Ultrazentrifuge XL 80). The pellet was resuspended in 30 ml ice-cold Tris buffer (20 mM TRIS (pH 7.4), […] Pepstatin A, 0.1 mM PMSF, 3 mM EDTA) by pipetting through a 10 ml serological pipet and centrifuged for 1 h at 4° C. at 60,000 g. A final resuspension was performed in a small volume of ice-cold Tris buffer (see above) by pressing through a serological pipet followed by ultrasonic treatment with a Branson Sonifier W-250 (Settings: Timer 1; Output Control 3; Duty Cycle constant; 1 cycle). Protein concentration was determined (BCA-Kit; Pierce) and aliquots stored at −80° C. or in liquid nitrogen for long-term storage.
After the plates had been dried for 2 h at 55° C. in a drying chamber scintillation cocktail (BetaPlate Scint; PerkinElmer) was added. Radioactivity was measured in a Microbeta Trilux two hours after the addition of the scintillation mixture. Data derived from liquid scintillation counting were analysed by iterative non-linear regression analysis with the use of the Statistical Analysis System (SAS): a program similar to “LIGAND” as described by Munson and Rodbard (Analytical Biochemistry 107, 220-239 (1980).
Data derived from liquid scintillation counting were analyzed by iterative non-linear regression analysis with the use of the Statistical Analysis System (SAS): a program similar to “LIGAND” as described by Munson and Rodbard (Anal. Biochem. 1980, 107, 220-239). Fitting was performed according to formulae described by Feldman (Anal. Biochem. 1972, 48, 317-338).

Mk striatum 5-HT6 = Mk striatum 5-HT6 (Macaca mulatta, UniProt A0A5F7ZDI3); assay: Mk striatum 5-HT6 binding; set-up: species or system Mk (monkey)
Sequence of Mk striatum 5-HT6 (A0A5F7ZDI3 1-440): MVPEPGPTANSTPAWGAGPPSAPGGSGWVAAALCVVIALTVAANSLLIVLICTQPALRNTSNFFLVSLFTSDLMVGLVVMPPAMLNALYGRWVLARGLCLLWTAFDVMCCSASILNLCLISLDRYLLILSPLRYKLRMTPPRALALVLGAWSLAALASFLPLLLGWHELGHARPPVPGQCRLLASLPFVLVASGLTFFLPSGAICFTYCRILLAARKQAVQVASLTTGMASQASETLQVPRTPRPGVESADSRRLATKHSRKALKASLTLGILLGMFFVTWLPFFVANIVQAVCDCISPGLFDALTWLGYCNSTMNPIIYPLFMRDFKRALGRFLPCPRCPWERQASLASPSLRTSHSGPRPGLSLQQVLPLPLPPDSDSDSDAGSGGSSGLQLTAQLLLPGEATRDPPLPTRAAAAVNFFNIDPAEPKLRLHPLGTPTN

[1] = Rat PK (0.05 mg/kg, iv), plasma and brain concentrations; type: in vivo; details: for Free B/P Ratio: free brain concentration divided by free plasma concentration
Rat microsome half-life = type: in vitro ADME; details: rat microsomes, read-out: Rat microsome T½ (mm)
[2] = biological target: 78 targets (CEREP) other than the 5-HT6 receptor; assay: Selectivity panel, 78 targets (CEREP); type: binding; details: all but the 5-HT2B and 5-HT2A receptors, read-out: Ki at ancillary targets
Rat 5-HT6 = Rat 5-HT6 (Rattus norvegicus, UniProt P31388); assay: Rat 5-HT6 binding
Sequence of Rat 5-HT6 (P31388 whole entry): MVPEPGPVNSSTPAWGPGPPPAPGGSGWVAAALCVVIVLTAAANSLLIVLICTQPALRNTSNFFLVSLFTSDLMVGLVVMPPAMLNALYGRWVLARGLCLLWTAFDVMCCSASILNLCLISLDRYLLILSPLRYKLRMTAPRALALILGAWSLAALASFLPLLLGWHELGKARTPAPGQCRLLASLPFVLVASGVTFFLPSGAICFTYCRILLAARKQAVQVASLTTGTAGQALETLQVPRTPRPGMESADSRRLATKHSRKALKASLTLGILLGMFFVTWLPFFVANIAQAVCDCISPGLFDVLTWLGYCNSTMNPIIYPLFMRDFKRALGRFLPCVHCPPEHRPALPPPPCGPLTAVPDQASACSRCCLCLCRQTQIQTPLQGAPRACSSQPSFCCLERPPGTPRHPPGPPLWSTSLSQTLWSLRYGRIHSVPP

h-5-HT2B receptor = biological target: T2, h-5-HT2B receptor (Homo sapiens, UniProt P41595); assay: 5-HT2B receptor binding assay ([125I]-DOI displacement, CHO-K1 membranes); details: text
T2 construct: purchased Perkin Elmer ES-3,4-M400UA; host or cells: CHO-K1 cell membranes
T2 sequence (P41595 whole entry): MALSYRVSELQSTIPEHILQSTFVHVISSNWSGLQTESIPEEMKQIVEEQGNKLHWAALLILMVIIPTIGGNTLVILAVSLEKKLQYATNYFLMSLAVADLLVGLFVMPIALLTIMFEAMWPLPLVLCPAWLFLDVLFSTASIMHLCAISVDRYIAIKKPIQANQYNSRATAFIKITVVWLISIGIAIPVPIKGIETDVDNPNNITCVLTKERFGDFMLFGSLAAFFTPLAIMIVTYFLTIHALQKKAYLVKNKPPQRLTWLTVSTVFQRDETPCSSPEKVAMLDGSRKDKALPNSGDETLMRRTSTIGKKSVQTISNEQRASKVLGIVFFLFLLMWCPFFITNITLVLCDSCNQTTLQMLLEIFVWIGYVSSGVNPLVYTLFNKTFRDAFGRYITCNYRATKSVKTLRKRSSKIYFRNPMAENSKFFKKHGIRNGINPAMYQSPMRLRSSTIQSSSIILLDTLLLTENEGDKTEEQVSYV
Protocol: (§1) Cells from stable clonal cell lines expressing the corresponding receptor (5-HT6, 5-HT2A or 5-HT2B receptors) were washed with PBS with 0.02% EDTA. The cells were collected by centrifugation at 500 g for 10 min. at 4° C., washed with PBS and centrifuged (500 g, 10 min. 4° C.). The pellets were stored at −80° C. until use. For membrane preparation, the thawed cell pellet was resuspended in ice-cold sucrose buffer (0.25 M sucrose, 10 mM Hepes (pH 7.4), 1 mM Phenylmethylsulfonyl fluoride (PMSF) in DMSO, […] Pepstatin-A, 3 mM EDTA, 0.025% Bacitracin) and homogenized with a Branson Sonifier W-250 (Settings: Timer 4; Output Control 3; Duty Cycle constant; 2 to 3 cycles). Cell disruption was checked with the aid of a microscope. Remaining unbroken cells were pelleted at 1,000 g for 10 min. at 4° C. The sucrose buffer supernatant was then centrifuged at 60,000 g for 1 h at 4° C. (Beckman Ultrazentrifuge XL 80). […] Protein concentration was determined (BCA-Kit; Pierce) and aliquots stored at −80° C. or in liquid nitrogen for long-term storage.
All receptor binding experiments were carried out in the corresponding assay buffer in a total volume of 200 μl in the presence of various concentrations of test compound (10 ^−5 M to 10^−9 M, tenfold serial dilution, duplicate determinations). […] Radioactivity was measured in a Microbeta Trilux two hours after the addition of the scintillation mixture. […]

h-5-HT6 receptor = biological target: T3, h-5-HT6 receptor (Homo sapiens, UniProt P50406); assay: 5-HT6 receptor binding assay ([3H]-LSD displacement, HEK293 membranes); details: human 5-HT6
T3 construct: expressed in transfected cells
T3 sequence (P50406 whole entry): as the sequence (A0A5F7ZDI3 1-440) above, with V41A, V49A, P141L, A304V, W342R, Q393R, R406Q, K429E, L432P, T437I counted along it
Protocol: as §1, with “The” for “Cells from stable clonal cell lines expressing the corresponding receptor (5-HT6, 5-HT2A or 5-HT2B receptors) were washed with PBS with 0.02% EDTA. The”, “C.” for “C. (Beckman Ultrazentrifuge XL 80).”
After the plates had been dried for 2 h at 55° C. in a drying chamber scintillation cocktail (BetaPlate Scint; PerkinElmer) was added. Radioactivity was measured in a Microbeta Trilux two hours after the addition of the scintillation mixture. Data derived from liquid scintillation counting were analysed by iterative non-linear regression analysis with the use of the Statistical Analysis System (SAS): a program similar to “LIGAND” as described by Munson and Rodbard (Analytical Biochemistry 107, 220-239 (1980). […]

[3] = Brain regional distribution of [3H]compound relative to cerebellum; type: in vivo

Molecule: CN1CCN(c2cccc3cc(S(=O)(=O)c4cccc(F)c4)cnc23)CC1 [GSK-215083, reference compound]
Ki (h-5-HT2A receptor; human 5-HT2A, read-out: Human 5-HT2A Ki): 0.395 nM
Ki (Mk striatum 5-HT6): 3.2 nM

Molecule: COc1ccc(S(=O)(=O)c2cccc(OC(F)F)c2)cc1N1CCN(C)CC1 [Example 1, 4-(5-(3-(difluoromethoxy)phenylsulfonyl)-2-methoxyphenyl)-1-methylpiperazin-1-ium chloride]
Free [brain] ([1]; 3 min after dose): 53.4 ng/g
Plasma Conc. ([1]; 3 min after dose): 49.2 ng/mL
Free B/P Ratio ([1]; 3 min after dose): 1.1
Free [brain] ([1]; 5 min after dose): 55.3 ng/g
Plasma Conc. ([1]; 5 min after dose): 29.0 ng/mL
Free B/P Ratio ([1]; 5 min after dose): 1.7
half-life (Rat microsome half-life): 10 min
Selectivity for 5-HT6 v. 5-HT2A (h-5-HT2A receptor; ratio of human 5-HT2A Ki to human 5-HT6 Ki): 475.6 ×
Selectivity for 5-HT6 over 5-HT2A (h-5-HT2A receptor; text): 475.6 fold
Selectivity for 5-HT6 over 5-HT2A (h-5-HT2A receptor; text, listed as Example (1)): 475 fold
Ki (h-5-HT2A receptor; text, read-out: Ki at 5-HT2A receptor): 195 nM
Ki [2]: > 1000 nM
Ki (Rat 5-HT6): 1.5 nM
Ki (h-5-HT2B receptor): 71 nM
Selectivity for 5-HT6 over 5-HT2B (h-5-HT2B receptor): 173.2 fold
Ki (h-5-HT6 receptor): 0.41 nM

Hippo./Cer. ([3]; 3 min after dose): 3.7
Striatum/Cer. ([3]; 3 min after dose): 10.4
Hippo./Cer. ([3]; 40 min after dose): 1.4
Striatum/Cer. ([3]; 40 min after dose): 2.0
Molecule: 1-(5-(3-(difluoromethoxy)phenylsulfonyl)-2-methoxyphenyl)-4-([^3H]methyl)-piperazine [Example 3]
